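The compound was tested at five concentrations on cells cultured in 96-well plates, with a 48-hour exposure period. At the TGI there is no net growth.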
Columns and labels:
Assay in all cases: inhibition of tumour cell growth, NCI panel, 48 h
[1] = tested on: SF-295 CNS
[2] = tested on: HS 578T breast
[3] = tested on: SR leukemia
[4] = tested on: M14 melanoma
[5] = tested on: HOP-92 NSCLC
[6] = tested on: HL-60(TB) leukemia
[7] = tested on: PC-3 prostate
[8] = tested on: MOLT-4 leukemia
[9] = tested on: HCT-116 colon
[10] = tested on: RXF 393 renal
[11] = tested on: MDA-MB-231 breast
[12] = tested on: NCI-H460 lung
[13] = tested on: T-47D breast
[14] = tested on: OVCAR-3 ovarian
[15] = tested on: BT-549 breast
[16] = tested on: SNB-19 CNS
[17] = tested on: UO-31 renal
[18] = tested on: MALME-3M melanoma
[19] = tested on: A498 renal
[20] = tested on: SK-OV-3 ovarian
[21] = tested on: IGROV1 ovarian
[22] = tested on: MDA-MB-435
[23] = tested on: CAKI-1 renal
[24] = tested on: SF-539 CNS
[25] = tested on: EKVX NSCLC
[26] = tested on: COLO 205 colon
[27] = tested on: SW-620 colon
[28] = tested on: MCF7 breast
[29] = tested on: CCRF-CEM leukemia
[30] = tested on: SNB-75 CNS
[31] = tested on: NCI-H226 lung
[32] = tested on: HT29 colon
[33] = tested on: DU-145 prostate
[34] = tested on: K-562 leukemia
[35] = tested on: OVCAR-8 ovarian
[36] = tested on: SF-268 CNS
[37] = tested on: SK-MEL-2 melanoma
[38] = tested on: SK-MEL-28 melanoma
[39] = tested on: HCT-15 colon
[40] = tested on: LOX IMVI melanoma
[41] = tested on: NCI-H23 lung
[42] = tested on: OVCAR-4 ovarian
[43] = tested on: HOP-62 NSCLC
[44] = tested on: OVCAR-5 ovarian
[45] = tested on: UACC-257 melanoma
[46] = tested on: SN12C renal
[47] = tested on: A549 NSCLC
[48] = tested on: U251 CNS
[49] = tested on: NCI/ADR-RES ovarian
[50] = tested on: TK-10 renal
[51] = tested on: SK-MEL-5 melanoma
[52] = tested on: HCC-2998 colon
[53] = tested on: UACC-62 melanoma
[54] = tested on: MDA-N
[55] = tested on: 786-0 renal
[56] = tested on: NCI-H522 lung
[57] = tested on: ACHN renal
[58] = tested on: RPMI-8226 leukemia
[59] = tested on: KM12 colon

Measured: TGI

COc1cc(C(=O)C2CC3(CCC2(O)c2cc(OC)c(OC)c(OC)c2)CC(=O)Nc2ccccc2C3=O)cc(OC)c1OC (stereo unspecified)
62.6 µM: [26]
78.8 µM: [6]
81.2 µM: [51]
50.7 µM: [12]
57.5 µM: [42]
not listed: [55] | [56] | [57] | [58] | [59]
> 100 µM: all other assays above

CCCC(=O)OCOC(=O)N(C)N=Nc1ccc(C(=O)OCC)cc1
76.7 µM: [46]
43.3 µM: [18]
44.2 µM: [53]
38 µM: [56]
56.7 µM: [57]
41.6 µM: [32]
59.8 µM: [55]
64.1 µM: [33]
84.7 µM: [35]
76.9 µM: [15]
85.7 µM: [2]
46.6 µM: [9]
66.3 µM: [27]
84.1 µM: [48]
33.5 µM: [10]
63.7 µM: [5]
71.8 µM: [12]
66.4 µM: [41]
97.1 µM: [7]
53.8 µM: [1]
45.5 µM: [28]
45.9 µM: [52]
51.5 µM: [26]
36.3 µM: [37]
37 µM: [40]
75.4 µM: [39]
not listed: [6] | [24]
> 100 µM: all other assays above
